Measured values as given in publication PMC10818931, “In Vitro Evaluation of Drug–Drug Interaction Potential of Epetraborole, a Novel Bacterial Leucyl-tRNA Synthetase Inhibitor” (Pharmaceuticals, 2024).
In brackets after ≈: the same amount, converted by molar mass.

Assays:
[1] = target: T1, MATE2K (Homo sapiens, UniProt Q86VL8); assay: Transporter inhibition; type: in vitro ADME; conditions: read-out: as an Inhibitor, IC50
T1 construct: host or cells: MDCK

[2] = test system: HEK 293 or MDCK cell lines; assay: Cytotoxicity in transporter inhibition studies; type: cell-based; conditions: at the concentrations tested in transporter inhibition studies
[3] = test system: human hepatocytes; assay: Cytotoxicity in hepatocytes; conditions: EBO at 100 µM, M3 at 250 µM
Procedure: (§1) The induction potential of EBO and M3 on CYP1A2, CYP2B6, and 3A4 was evaluated by incubating the test articles with plated human hepatocytes from 3 individual donors (GKJ, ZEY, WKF) in triplicate according to WuXi AppTec (Cranbury, NJ, USA) SOP.

[4] = test system: CYP2B6; assay: CYP mRNA induction in plated human hepatocytes (qPCR); conditions: for Apparent Emax: CYP2B6 mRNA, EBO 0.3–100 µM, M3 1–250 µM
Procedure: as §1
(§2) At the end of incubation, the RNA of human hepatocytes was isolated and the mRNA expression levels of CYP 1A2, 2B6, and 3A4 were evaluated by using real-time polymerase chain reaction (qPCR) after being reverse-transcribed (RT) to cDNA following manufacturer’s instruction (thermos Fisher Scientific (Waltham, MA, USA). On the last dosing day with EBO or M3, incubation samples were extracted in triplicate by the addition of ice-cold quench solutions at 0, 0.5, 1, 2, 4, 6, and 24 h after dosing and the extracted samples were analyzed using LC-MS/MS to determine the EBO or M3 concentration in each sample.

[5] = test system: CYP1A2; assay: as above; conditions: for Apparent Emax: CYP1A2 mRNA, EBO 0.3–100 µM, M3 1–250 µM
Procedure: as §1, §2

[6] = test system: CYP3A4; assay: as above; conditions: for Apparent Emax: EBO 0.3–100 µM, M3 1–250 µM; for EC50 at 2 days: human
Procedure: as §1, §2

[7] = Solubility in hepatocyte incubation medium; type: physicochemical; conditions: aqueous buffer, read-out: Soluble in hepatocyte incubation medium at
[8] = target: T2, OATP1B1 (Homo sapiens, UniProt Q9Y6L6); assay: Substrate potential in transporter-transfected MDCK cells; type: in vitro ADME
T2 construct: host or cells: MDCK
T2 sequence (Q9Y6L6 1-691): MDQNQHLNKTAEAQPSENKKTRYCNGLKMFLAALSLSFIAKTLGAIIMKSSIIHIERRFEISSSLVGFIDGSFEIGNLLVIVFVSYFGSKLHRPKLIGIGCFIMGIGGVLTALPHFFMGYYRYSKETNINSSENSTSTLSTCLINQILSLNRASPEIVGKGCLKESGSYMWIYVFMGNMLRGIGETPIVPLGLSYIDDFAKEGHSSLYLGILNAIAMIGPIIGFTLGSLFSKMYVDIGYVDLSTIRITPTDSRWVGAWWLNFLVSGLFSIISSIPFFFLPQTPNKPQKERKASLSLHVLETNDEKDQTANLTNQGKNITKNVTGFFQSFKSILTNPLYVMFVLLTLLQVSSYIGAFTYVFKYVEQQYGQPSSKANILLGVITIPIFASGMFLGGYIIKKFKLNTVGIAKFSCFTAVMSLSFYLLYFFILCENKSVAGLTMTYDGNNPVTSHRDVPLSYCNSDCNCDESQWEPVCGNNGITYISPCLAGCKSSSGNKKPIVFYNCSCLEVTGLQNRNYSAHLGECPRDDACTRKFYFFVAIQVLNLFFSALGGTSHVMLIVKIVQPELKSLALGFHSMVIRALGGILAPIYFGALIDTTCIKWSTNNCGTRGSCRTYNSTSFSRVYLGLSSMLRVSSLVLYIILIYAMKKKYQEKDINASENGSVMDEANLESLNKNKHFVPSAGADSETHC
Procedure: (§3) The uptake of a probe substrate of each transporter was conducted in parallel with the test article in separate wells of the same batch of vector control and transporter-transfected cells. Cells were incubated at 37 °C with 5% CO2 with 500 μL of dosing solution for different periods of time.

[9] = target: T3, OCT2 (Homo sapiens, UniProt O15244); assay: as above; type: in vitro ADME
T3 construct: host or cells: MDCK
T3 sequence (O15244 1-555): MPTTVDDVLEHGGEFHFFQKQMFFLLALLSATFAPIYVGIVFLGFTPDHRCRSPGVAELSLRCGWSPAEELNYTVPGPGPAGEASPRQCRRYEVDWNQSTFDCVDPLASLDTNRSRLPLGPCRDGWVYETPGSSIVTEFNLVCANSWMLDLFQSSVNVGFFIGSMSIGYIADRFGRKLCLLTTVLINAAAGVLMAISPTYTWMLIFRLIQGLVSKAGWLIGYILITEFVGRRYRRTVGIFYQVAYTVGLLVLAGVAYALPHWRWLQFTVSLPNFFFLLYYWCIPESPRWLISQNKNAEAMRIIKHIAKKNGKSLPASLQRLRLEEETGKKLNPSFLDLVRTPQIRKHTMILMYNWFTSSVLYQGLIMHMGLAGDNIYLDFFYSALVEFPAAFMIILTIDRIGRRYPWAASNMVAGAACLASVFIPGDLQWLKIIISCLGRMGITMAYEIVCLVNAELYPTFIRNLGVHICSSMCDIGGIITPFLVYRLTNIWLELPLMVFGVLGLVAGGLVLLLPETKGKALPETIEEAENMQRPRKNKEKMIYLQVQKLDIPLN
Procedure: as §3

[10] = target: T1, MATE2K; assay: as above; type: in vitro ADME
Procedure: as §3

[11] = at 100 µM, EBO 2 out of 3 donors, M3 1 out of 3 donors

T1 sequence (Q86VL8 1-566 isoform Q86VL8-3): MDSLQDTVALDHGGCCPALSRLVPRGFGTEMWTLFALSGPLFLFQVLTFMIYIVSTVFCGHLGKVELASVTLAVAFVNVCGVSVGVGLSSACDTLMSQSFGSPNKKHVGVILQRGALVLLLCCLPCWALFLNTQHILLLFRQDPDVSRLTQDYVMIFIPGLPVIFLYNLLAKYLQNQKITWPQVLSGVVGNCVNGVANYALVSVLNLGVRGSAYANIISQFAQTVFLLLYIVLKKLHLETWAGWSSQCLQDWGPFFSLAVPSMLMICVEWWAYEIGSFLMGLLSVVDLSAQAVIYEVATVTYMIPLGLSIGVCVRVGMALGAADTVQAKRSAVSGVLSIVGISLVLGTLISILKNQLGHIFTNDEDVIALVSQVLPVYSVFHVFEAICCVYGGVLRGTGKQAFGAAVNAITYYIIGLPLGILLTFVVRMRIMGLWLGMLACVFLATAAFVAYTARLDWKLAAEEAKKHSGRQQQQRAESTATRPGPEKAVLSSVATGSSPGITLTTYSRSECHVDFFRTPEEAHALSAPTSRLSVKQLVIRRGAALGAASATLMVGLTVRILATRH

| SMILES | IC50 [1] [µM] | Cytotoxicity [2] | Cytotoxicity (>20%) [3] | Apparent Emax ([4]; donor one) [Fold] | Apparent Emax ([4]; donor three) [Fold] | Apparent Emax ([4]; donor two) [Fold] | Apparent Emax ([5]; donor one) [Fold] | Apparent Emax ([5]; donor three) [Fold] | Apparent Emax ([5]; donor two) [Fold] | Apparent Emax ([6]; CYP3A4 mRNA, donor one) [Fold] | Apparent Emax ([6]; CYP3A4 mRNA, donor three) [Fold] | Apparent Emax ([6]; CYP3A4 mRNA, donor two) [Fold] | CYP3A4 mRNA expression induction [6, 11] | solubility [7] [mM] | Influx ratio [8] | as a Substrate [8] | as a Substrate [9] | Influx ratio [10] | as a Substrate [10] | other results |
| --- | --- | --- | --- | --- | --- | --- | --- | --- | --- | --- | --- | --- | --- | --- | --- | --- | --- | --- | --- | --- |
| NC[C@H]1OB(O)c2c(OCCCO)cccc21 [EBO, Epetraborole] | > 100 | Neither EBO nor M3 induced any cytotoxicity | did not induce cytotoxicity (>20%) | <2 | <2 | >2.18 | <2 | <2 | <2 | >2.98 | <2 | >2.93 | ~ 3 fold | 20 (≈ 4740 µg/mL) | < 2 | No | could potentially be a substrate and Yes | < 2 | No | CYP2B6 mRNA expression induction ([4]; at 100 µM, 1 out of 3 donors): 2.18 fold; Inducer of CYP2B6 (in words) ([4]; hepatocytes): weak inducer; EC50 at 2 days ([4]; human, plated human hepatocytes): > 100 µM; Inducer of CYP1A2 mRNA (in words) ([5]; hepatocytes): not an inducer; Inducer of CYP3A4 (in words) ([6]; hepatocytes): weak inducer; EC50 at 2 days ([6]; plated human hepatocytes): > 100 µM; EC50 ([6]; read-out: Apparent EC50, CYP3A4 mRNA, donor one): > 100 µM; Influx ratio ([9]; 5 µM): 3.44 |
| NC[C@H]1OB(O)c2c(OCCC(=O)O)cccc21 [M3] | > 250 | Neither EBO nor M3 induced any cytotoxicity | did not induce cytotoxicity (>20%) | <2 | <2 | <2 | <2 | <2 | <2 | 2.16 | <2 | <2 | 2.19 fold | 0.25 (≈ 62.8 µg/mL) | < 2 | No | not a substrate and No | < 2 | No | CYP3A4 mRNA expression induction ([6]; at 250 µM, 1 out of 3 donors): 2.13 fold; EC50 at 2 days [6]: 32.4 µM |
